What was measured:
Test in all cases: Microbiological challenge testing in BPW broth, graded subculture counts
Assay type in all cases: cell-based
[1] = test system: Proteus vulgaris Wild type
Protocol: (§1) The microorganisms in the table below were used in challenge tests. They were either ATCC (American Type Culture Collection) or “wild type” as indicated. Wild type organisms were problematic organisms previously isolated from chemical products.
(§2) All of the microorganisms were grown in Tryptose Soy Broth (TSB), DIFCO™ available from Becton, Dickinson and Company, containing 1% dextrose. Candida albicans and Aspergillus niger, were incubated at 22° C.+/−2° C. for at least 96 hours. All bacteria were incubated at 35° C.+/−2° C. in a humidified incubator for at least 96 hours.
(§3) The following procedure was followed to determine the amount of each challenge material (inoculum broth) needed to produce a 10^8 CFU/mL challenge, which is equivalent to a final test-sample microbial concentration of 10^5 to 10^6 CFU/mL (CFU=colony forming units).
(§4) Using a sterile pipette, 1 mL of the growth from each TSB culture was transferred into tubes of 9 mL buffered water (pH 7.2 phosphate buffer) and mixed thoroughly. This was repeated to make serial 1:10 dilutions. Then, 0.1 mL of each sample and dilution was inoculated onto agar plates to produce the equivalent of a further 1:10 dilution. (C. albicans and A. niger were inoculated onto SABD and bacteria were inoculated onto Plate Count Agar (PCA), DIFCO™ available from Becton, Dickinson and Company.) (The normal volume plated for most samples was 0.1 mL. Some samples that could be very low in micro-organisms (high dilutions) were plated using 0.5 mL of inoculum, in order to produce reproducible counts.) The samples were distributed on the plates using the spread-plate technique. The spread-plate technique is carried out by spreading the sample over the entire plate surface using a sterile spreading rod while rotating the plate with a rotary auto-plater. After the inoculum was absorbed completely by the agar, each plate was inverted and incubated (fungi at 22° C.+/−2° C. and bacteria at 35° C.+/−2° C.).
(§5) After incubation for at least 48 hours, colonies that had developed on the agar plates were counted (CFU) and recorded with the corresponding dilution. If counting had to be delayed temporarily, plates were refrigerated, preferably no more than 24 hours, until they could be counted. The number of CFU/mL was determined by multiplying the plate count by the dilution factor of the plate counted.
(§6) Turbidity in Nepholemetric Turbidity Units (NTU) was measured for each serial dilution using the HF-Micro 100 Model Turbidimeter. For each microorganism, the plate counts were compared to the turbidity readings.
(§7) Control substrates (“broth alone”) were prepared for each microorganism separately in triplicate by adding 13.5 mL of Buffered Peptone Water broth (BPW) containing 1% dextrose to each 20-mL glass tube, then adding 1.5 mL challenge material to produce a final concentration at time zero of 10^5 to 10^6 CFU/mL and a total volume of 15 mL.
(§8) Test sample substrates were prepared containing each test material listed below at the concentrations shown for challenge testing with each microorganism separately. Sample substrates were prepared in triplicate, except the substrates containing butoxyethanol which were prepared in duplicate. Substrates were prepared by adding BPW containing 1% dextrose to each 20-mL glass tube, then adding the test material in the amount appropriate to achieve the desired weight/volume percent and to achieve a total volume of BPW plus dextrose plus test material of 13.5 mL. Then 1.5 mL challenge material was added to produce a final concentration at time zero of 10^5 to 10^6 CFU/mL and a total test sample substrate volume of 15 mL.

[2] = test system: Pseudomonas aeruginosa Wild type; conditions: P. aeruginosa
Protocol: as §1, §2, §3, §4, §5, §6, §7, §8

[3] = test system: Staphylococcus aureus ATCC 25923; conditions: S. aureus
Protocol: as §1, §2, §3, §4, §5, §6, §7, §8

[4] = test system: Staphylococcus epidermidis ATCC 12228
Protocol: as §1, §2, §3, §4, §5, §6, §7, §8

`OCC1CCCC(CO)C1` (stereo not drawn) [1,3-CHDM, 1,3-cyclohexanedimethanol] was tested. Which “P. vulgaris growth grade, 3 day” value ([1]; 2.5% weight/volume) did it give?
Its value is 4 (1000 to 10,000 colonies countable (thus 10,000 CFU/mL to 100,000 CFU/mL)).

And the “P. vulgaris growth grade, 13 day” value ([1]; 2.5% weight/volume)?
Its value is 4 (1000 to 10,000 colonies countable (thus 10,000 CFU/mL to 100,000 CFU/mL)).

What about the “P. vulgaris growth grade, 30 day” value ([1]; 2.5% weight/volume) of the same compound?
Its value is 4 (1000 to 10,000 colonies countable (thus 10,000 CFU/mL to 100,000 CFU/mL)).

And the “P. vulgaris growth grade, 3 day” value ([1]; 5.0% weight/volume)?
The value was 4 (1000 to 10,000 colonies countable (thus 10,000 CFU/mL to 100,000 CFU/mL)).

And the “P. vulgaris growth grade, 13 day” value ([1]; 5.0% weight/volume)?
The value was 4 (1000 to 10,000 colonies countable (thus 10,000 CFU/mL to 100,000 CFU/mL)).

And the “P. vulgaris growth grade, 30 day” value ([1]; 5.0% weight/volume)?
The value was 4 (1000 to 10,000 colonies countable (thus 10,000 CFU/mL to 100,000 CFU/mL)).

And the Grade ([2]; 0.5% (wt/vol), 3 day)?
Its Grade is 5 (More than 10,000 colonies estimated (thus more than 100,000 CFU/mL)).

And the Grade ([2]; 0.5% (wt/vol), 13 day)?
The Grade was 5 (More than 10,000 colonies estimated (thus more than 100,000 CFU/mL)).

What about the Grade ([2]; 0.5% (wt/vol), 30 day) of the same compound?
The Grade was 5 (More than 10,000 colonies estimated (thus more than 100,000 CFU/mL)).

What about the Grade ([2]; 1.25% (wt/vol), 3 day) of the same compound?
The Grade was 4 (1000 to 10,000 colonies countable (thus 10,000 CFU/mL to 100,000 CFU/mL)).

What about the Grade ([2]; 1.25% (wt/vol), 13 day) of the same compound?
The Grade was 4 (1000 to 10,000 colonies countable (thus 10,000 CFU/mL to 100,000 CFU/mL)).

What about the Grade ([2]; 1.25% (wt/vol), 30 day) of the same compound?
Its Grade is 4 (1000 to 10,000 colonies countable (thus 10,000 CFU/mL to 100,000 CFU/mL)).

And the Grade ([2]; 2.5% (wt/vol), 3 day)?
Its Grade is 4 (1000 to 10,000 colonies countable (thus 10,000 CFU/mL to 100,000 CFU/mL)).

And the Grade ([2]; 2.5% (wt/vol), 13 day)?
Its Grade is 4 (1000 to 10,000 colonies countable (thus 10,000 CFU/mL to 100,000 CFU/mL)).

What about the Grade ([2]; 2.5% (wt/vol), 30 day) of the same compound?
Its Grade is 4 (1000 to 10,000 colonies countable (thus 10,000 CFU/mL to 100,000 CFU/mL)).

And the Grade ([2]; 5.0% (wt/vol), 3 day)?
Its Grade is 4 (1000 to 10,000 colonies countable (thus 10,000 CFU/mL to 100,000 CFU/mL)).

What about the Grade ([2]; 5.0% (wt/vol), 13 day) of the same compound?
Its Grade is 4 (1000 to 10,000 colonies countable (thus 10,000 CFU/mL to 100,000 CFU/mL)).

And the Grade ([2]; 5.0% (wt/vol), 30 day)?
Its Grade is 4 (1000 to 10,000 colonies countable (thus 10,000 CFU/mL to 100,000 CFU/mL)).

What about the Grade ([3]; 0.5% (wt/vol), 3 day) of the same compound?
The Grade was 5 (More than 10,000 colonies estimated (thus more than 100,000 CFU/mL)).

What about the Grade ([3]; 0.5% (wt/vol), 14 day) of the same compound?
Its Grade is 5 (More than 10,000 colonies estimated (thus more than 100,000 CFU/mL)).

What about the Grade ([3]; 0.5% (wt/vol), 30 day) of the same compound?
Its Grade is 5 (More than 10,000 colonies estimated (thus more than 100,000 CFU/mL)).

What about the Grade ([3]; 1.25% (wt/vol), 3 day) of the same compound?
Its Grade is 4 (1000 to 10,000 colonies countable (thus 10,000 CFU/mL to 100,000 CFU/mL)).

What about the Grade ([3]; 1.25% (wt/vol), 14 day) of the same compound?
Its Grade is 4 (1000 to 10,000 colonies countable (thus 10,000 CFU/mL to 100,000 CFU/mL)).

And the Grade ([3]; 1.25% (wt/vol), 30 day)?
Its Grade is 4 (1000 to 10,000 colonies countable (thus 10,000 CFU/mL to 100,000 CFU/mL)).

And the Grade ([3]; 2.5% (wt/vol), 3 day)?
The Grade was 4 (1000 to 10,000 colonies countable (thus 10,000 CFU/mL to 100,000 CFU/mL)).

What about the Grade ([3]; 2.5% (wt/vol), 14 day) of the same compound?
Its Grade is 4 (1000 to 10,000 colonies countable (thus 10,000 CFU/mL to 100,000 CFU/mL)).

And the Grade ([3]; 2.5% (wt/vol), 30 day)?
The Grade was 4 (1000 to 10,000 colonies countable (thus 10,000 CFU/mL to 100,000 CFU/mL)).

And the Grade ([3]; 5.0% (wt/vol), 3 day)?
Its Grade is 4 (1000 to 10,000 colonies countable (thus 10,000 CFU/mL to 100,000 CFU/mL)).

And the Grade ([3]; 5.0% (wt/vol), 14 day)?
Its Grade is 3 (100 to 1000 colonies (thus 1000 to 10,000 CFU/mL)).

And the Grade ([3]; 5.0% (wt/vol), 30 day)?
Its Grade is 4 (1000 to 10,000 colonies countable (thus 10,000 CFU/mL to 100,000 CFU/mL)).

And the “S. epidermidis growth grade, 3 day” value ([4]; 0.5% weight/volume)?
Its value is 4 (1000 to 10,000 colonies countable (thus 10,000 CFU/mL to 100,000 CFU/mL)).

What about the “S. epidermidis growth grade, 13 day” value ([4]; 0.5% weight/volume) of the same compound?
The value was 4 (1000 to 10,000 colonies countable (thus 10,000 CFU/mL to 100,000 CFU/mL)).

And the “S. epidermidis growth grade, 30 day” value ([4]; 0.5% weight/volume)?
Its value is 4 (1000 to 10,000 colonies countable (thus 10,000 CFU/mL to 100,000 CFU/mL)).

And the “S. epidermidis growth grade, 3 day” value ([4]; 1.25% weight/volume)?
The value was 4 (1000 to 10,000 colonies countable (thus 10,000 CFU/mL to 100,000 CFU/mL)).

And the “S. epidermidis growth grade, 13 day” value ([4]; 1.25% weight/volume)?
Its value is 3.7.

And the “S. epidermidis growth grade, 30 day” value ([4]; 1.25% weight/volume)?
Its value is 4 (1000 to 10,000 colonies countable (thus 10,000 CFU/mL to 100,000 CFU/mL)).

What about the “S. epidermidis growth grade, 3 day” value ([4]; 2.5% weight/volume) of the same compound?
Its value is 4 (1000 to 10,000 colonies countable (thus 10,000 CFU/mL to 100,000 CFU/mL)).

What about the “S. epidermidis growth grade, 13 day” value ([4]; 2.5% weight/volume) of the same compound?
Its value is 3 (100 to 1000 colonies (thus 1000 to 10,000 CFU/mL)).

And the “S. epidermidis growth grade, 30 day” value ([4]; 2.5% weight/volume)?
The value was 4 (1000 to 10,000 colonies countable (thus 10,000 CFU/mL to 100,000 CFU/mL)).

What about the “S. epidermidis growth grade, 3 day” value ([4]; 5.0% weight/volume) of the same compound?
The value was 2 (52 to 100 colonies counted (thus 520 to 1000 CFU/mL)).

What about the “S. epidermidis growth grade, 13 day” value ([4]; 5.0% weight/volume) of the same compound?
The value was 1 (0 to 51 colonies counted (thus 10 to 510 CFU/mL based on 0.1-mL sample)).

And the “S. epidermidis growth grade, 30 day” value ([4]; 5.0% weight/volume)?
The value was 3 (100 to 1000 colonies (thus 1000 to 10,000 CFU/mL)).

Source: patent US20100160454A1, “ANTIMICROBIAL AGENTS, COMPOSITIONS AND PRODUCTS CONTAINING THE SAME, AND METHODS OF USING THE COMPOSITIONS AND PRODUCTS” (Eastman Chemical Company, priority 2008, published 2010)
